In ChEMBL document CHEMBL4219183, “Novel purine benzimidazoles as antimicrobial agents by regulating ROS generation and targeting clinically resistant Staphylococcus aureus DNA groove” (Bioorg Med Chem Lett, 2018):
In brackets after ≈: the same amount, converted by molar mass. Activity calls are given as the source filed them. No cut-off for these calls is given here.

What was measured:
[1] = system: Escherichia coli; assay: Antibacterial activity against Escherichia coli ATCC 25922 after 24 hrs by two fold serial dilution method; assay type: functional; conditions: ATCC 25922, 24 h
[2] = system: Candida parapsilosis; assay: Antifungal activity against Candida parapsilosis ATCC 22019 after 24 hrs by two fold serial dilution method; assay type: functional; conditions: ATCC 22019, 24 h
[3] = system: Pseudomonas aeruginosa; assay: Antibacterial activity against Pseudomonas aeruginosa ATCC 27853 after 24 hrs by two fold serial dilution method; assay type: functional; conditions: ATCC 27853, 24 h
[4] = system: Klebsiella pneumoniae; assay: Antibacterial activity against Klebsiella pneumoniae after 24 hrs by two fold serial dilution method; assay type: functional
[5] = system: Aspergillus fumigatus; assay: Antifungal activity against Aspergillus fumigatus after 24 hrs by two fold serial dilution method; assay type: functional
[6] = system: Candida albicans; assay: Antifungal activity against Candida albicans ATCC 90023 after 24 hrs by two fold serial dilution method; assay type: functional; conditions: ATCC 90023, 24 h
[7] = system: Enterococcus faecalis; assay: Antibacterial activity against Enterococcus faecalis after 24 hrs by two fold serial dilution method; assay type: functional
[8] = system: Candida tropicalis; assay: Antifungal activity against Candida tropicalis after 24 hrs by two fold serial dilution method; assay type: functional
[9] = system: Candida albicans; assay: Antifungal activity against Candida albicans after 24 hrs by two fold serial dilution method; assay type: functional
[10] = system: Staphylococcus aureus; assay: Antibacterial activity against methicillin-resistant Staphylococcus aureus N315 after 24 hrs by two fold serial dilution method; assay type: functional; conditions: N315, 24 h
[11] = system: Pseudomonas aeruginosa; assay: Antibacterial activity against Pseudomonas aeruginosa after 24 hrs by two fold serial dilution method; assay type: functional
[12] = system: Acinetobacter baumannii; assay: Antibacterial activity against Acinetobacter baumannii after 24 hrs by two fold serial dilution method; assay type: functional
[13] = system: Staphylococcus aureus; assay: Antibacterial activity against Staphylococcus aureus after 24 hrs by two fold serial dilution method; assay type: functional
[14] = system: Staphylococcus aureus; assay: Antibacterial activity against Staphylococcus aureus ATCC 25923 after 24 hrs by two fold serial dilution method; assay type: functional; conditions: ATCC 25923, 24 h
[15] = system: Escherichia coli; assay: Antibacterial activity against Escherichia coli after 24 hrs by two fold serial dilution method; assay type: functional
[16] = system: Staphylococcus aureus; assay: Antibacterial activity against Staphylococcus aureus ATCC 29213 after 24 hrs by two fold serial dilution method; assay type: functional; conditions: ATCC 29213, 24 h
[17] = system: Staphylococcus aureus; assay: Potency index, ratio of norfloxacin MIC to compound MIC for Staphylococcus aureus; assay type: functional
[18] = system: DNA; assay: Binding affinity to Staphylococcus aureus genomic DNA at pH 7.4 at 304 K by fluorescence quenching analysis; assay type: nucleic-acid assay
[19] = system: DNA; assay: Binding affinity to Staphylococcus aureus genomic DNA assessed as modified Stern-Volmer quenching constant at pH 7.4 at 314 K by fluorescence quenching analysis; assay type: nucleic-acid assay
[20] = Cytotoxicity against human A549 cells assessed as cell viability at <500 ug/ml after 48 hrs by MTT assay relative to control; assay type: cell-based; conditions: read-out: Activity
[21] = system: DNA; assay: Binding affinity to Staphylococcus aureus genomic DNA assessed as modified Stern-Volmer quenching constant at pH 7.4 at 294 K by fluorescence quenching analysis; assay type: nucleic-acid assay
[22] = system: DNA; assay: Binding affinity to Staphylococcus aureus genomic DNA assessed as hyperchromic shift at 2.5 to 20 x 10^-6mol/L by UV absorption spectral analysis; assay type: nucleic-acid assay
[23] = system: DNA; assay: Binding affinity to Staphylococcus aureus genomic DNA assessed as gibbs free energy change at 304 K; assay type: nucleic-acid assay
[24] = system: HeLa; assay: Induction of ROS generation in human HeLa cells at 6.25 to 50 uM by DCFH-DA staining based fluorescence microscopic method; assay type: cell-based
[25] = system: DNA; assay: Binding affinity to Staphylococcus aureus genomic DNA assessed as change in enthalpy at 304 K; assay type: nucleic-acid assay
[26] = system: DNA; assay: Binding affinity to Staphylococcus aureus genomic DNA at pH 7.4 at 294 K by fluorescence quenching analysis; assay type: nucleic-acid assay
[27] = system: DNA; assay: Inhibition of neutral red binding to Staphylococcus aureus genomic DNA up to 20 x 10^-6mol/L by UV absorption spectral analysis; assay type: nucleic-acid assay
[28] = system: DNA; assay: Binding affinity to Staphylococcus aureus genomic DNA assessed as gibbs free energy change at 314 K; assay type: nucleic-acid assay
[29] = system: DNA; assay: Binding affinity to Staphylococcus aureus genomic DNA by UV absorption spectral analysis; assay type: nucleic-acid assay
[30] = system: DNA; assay: Binding affinity to Staphylococcus aureus genomic DNA at pH 7.4 at 314 K by fluorescence quenching analysis; assay type: nucleic-acid assay
[31] = system: DNA; assay: Binding affinity to Staphylococcus aureus genomic DNA assessed as iodide quenching constant at pH 7.4 by fluorescence quenching analysis (reference value: 28.74 L/mol); assay type: nucleic-acid assay
[32] = system: DNA; assay: Binding affinity to Staphylococcus aureus genomic DNA assessed as modified Stern-Volmer quenching constant at pH 7.4 at 304 K by fluorescence quenching analysis; assay type: nucleic-acid assay
[33] = system: DNA; assay: Binding affinity to Staphylococcus aureus genomic DNA assessed as gibbs free energy change at 294 K; assay type: nucleic-acid assay
[34] = system: DNA; assay: Binding affinity to Staphylococcus aureus genomic DNA assessed as change in entropy at 304 K; assay type: nucleic-acid assay

| SMILES | MIC [1] | MIC80 [2] | MIC [3] | MIC [4] | MIC80 [5] | MIC80 [6] | MIC [7] | MIC80 [8] | MIC80 [9] | MIC [10] | MIC [11] | MIC [12] | MIC [13] | MIC [14] | MIC [15] | MIC [16] | also measured |
| --- | --- | --- | --- | --- | --- | --- | --- | --- | --- | --- | --- | --- | --- | --- | --- | --- | --- |
| Cc1cc2ncn(CCn3cnc4c(N5CCOCC5)ncnc43)c2cc1C | 256 µg/mL (≈ 678 µM) | 256 µg/mL (≈ 678 µM) | 128 µg/mL (≈ 339 µM) | 64 µg/mL (≈ 170 µM) | 128 µg/mL (≈ 339 µM) | 128 µg/mL (≈ 339 µM) | 128 µg/mL (≈ 339 µM) | 128 µg/mL (≈ 339 µM) | 256 µg/mL (≈ 678 µM) | 256 µg/mL (≈ 678 µM) | 32 µg/mL (≈ 84.8 µM) | 256 µg/mL (≈ 678 µM) | 256 µg/mL (≈ 678 µM) | 256 µg/mL (≈ 678 µM) | 256 µg/mL (≈ 678 µM) | 128 µg/mL (≈ 339 µM) | – |
| CCCCCCn1c(Cn2cnc3c(N4CCOCC4)ncnc32)nc2ccccc21 | 8 µg/mL (≈ 19.1 µM) | 128 µg/mL (≈ 305 µM) | 16 µg/mL (≈ 38.1 µM) | 64 µg/mL (≈ 153 µM) | 128 µg/mL (≈ 305 µM) | 32 µg/mL (≈ 76.3 µM) | 128 µg/mL (≈ 305 µM) | 64 µg/mL (≈ 153 µM) | 32 µg/mL (≈ 76.3 µM) | 16 µg/mL (≈ 38.1 µM) | 64 µg/mL (≈ 153 µM) | 64 µg/mL (≈ 153 µM) | 4 µg/mL (≈ 9.53 µM) | 64 µg/mL (≈ 153 µM) | 128 µg/mL (≈ 305 µM) | 512 µg/mL (≈ 1220 µM) | Ratio [17]: 16; KSV [18]: 1.52 ×10⁴ L/mol; Ka [19]: 1.73 ×10⁴ L/mol; viability at 48 h [20]: > 85%; Ka [21]: 3.76 ×10⁴ L/mol; Activity [22]: Active; deltaG [23]: -25.6 kJ/mol; Activity [24]: Non-Toxic; deltaH [25]: -29.8 kJ/mol; KSV [26]: 1.87 ×10⁴ L/mol; inhibition [27]: inactive; deltaG [28]: -25.5 kJ/mol; K [29]: 4.92 ×10⁵ L/mol; KSV [30]: 1.21 ×10⁴ L/mol; KSV [31]: 78.2 L/mol; Ka [32]: 2.33 ×10⁴ L/mol; deltaG [33]: -25.8 kJ/mol; deltaS [34]: -13.6 J/mol.K |
| Cc1nc2ccccc2n1CCn1cnc2c(N3CCOCC3)ncnc21 | 256 µg/mL (≈ 704 µM) | 512 µg/mL (≈ 1410 µM) | 256 µg/mL (≈ 704 µM) | 256 µg/mL (≈ 704 µM) | 256 µg/mL (≈ 704 µM) | 128 µg/mL (≈ 352 µM) | 256 µg/mL (≈ 704 µM) | 256 µg/mL (≈ 704 µM) | 128 µg/mL (≈ 352 µM) | 512 µg/mL (≈ 1410 µM) | 256 µg/mL (≈ 704 µM) | 256 µg/mL (≈ 704 µM) | 256 µg/mL (≈ 704 µM) | 32 µg/mL (≈ 88.1 µM) | 512 µg/mL (≈ 1410 µM) | 128 µg/mL (≈ 352 µM) | – |
| c1ccc(Cn2c(Cn3cnc4c(N5CCOCC5)ncnc43)nc3ccccc32)cc1 | 256 µg/mL (≈ 602 µM) | 512 µg/mL (≈ 1200 µM) | 128 µg/mL (≈ 301 µM) | 128 µg/mL (≈ 301 µM) | 512 µg/mL (≈ 1200 µM) | 256 µg/mL (≈ 602 µM) | 128 µg/mL (≈ 301 µM) | 128 µg/mL (≈ 301 µM) | 256 µg/mL (≈ 602 µM) | 256 µg/mL (≈ 602 µM) | 256 µg/mL (≈ 602 µM) | 256 µg/mL (≈ 602 µM) | 512 µg/mL (≈ 1200 µM) | 512 µg/mL (≈ 1200 µM) | 256 µg/mL (≈ 602 µM) | 256 µg/mL (≈ 602 µM) | – |
| Clc1cccc(Cn2c(Cn3cnc4c(N5CCOCC5)ncnc43)nc3ccccc32)c1 | 256 µg/mL (≈ 557 µM) | 512 µg/mL (≈ 1110 µM) | 256 µg/mL (≈ 557 µM) | 128 µg/mL (≈ 278 µM) | 256 µg/mL (≈ 557 µM) | 128 µg/mL (≈ 278 µM) | 128 µg/mL (≈ 278 µM) | 128 µg/mL (≈ 278 µM) | 512 µg/mL (≈ 1110 µM) | 512 µg/mL (≈ 1110 µM) | 512 µg/mL (≈ 1110 µM) | 256 µg/mL (≈ 557 µM) | 256 µg/mL (≈ 557 µM) | 128 µg/mL (≈ 278 µM) | 256 µg/mL (≈ 557 µM) | 128 µg/mL (≈ 278 µM) | – |
| Clc1ccc(Cn2c(Cn3cnc4c(N5CCOCC5)ncnc43)nc3ccccc32)cc1 | 256 µg/mL (≈ 557 µM) | 512 µg/mL (≈ 1110 µM) | 128 µg/mL (≈ 278 µM) | 256 µg/mL (≈ 557 µM) | 256 µg/mL (≈ 557 µM) | 128 µg/mL (≈ 278 µM) | 256 µg/mL (≈ 557 µM) | 64 µg/mL (≈ 139 µM) | 256 µg/mL (≈ 557 µM) | 512 µg/mL (≈ 1110 µM) | 512 µg/mL (≈ 1110 µM) | 512 µg/mL (≈ 1110 µM) | 512 µg/mL (≈ 1110 µM) | 128 µg/mL (≈ 278 µM) | 256 µg/mL (≈ 557 µM) | 256 µg/mL (≈ 557 µM) | – |
| CCCCCCCCCCn1c(Cn2cnc3c(N4CCOCC4)ncnc32)nc2ccccc21 | 128 µg/mL (≈ 269 µM) | 256 µg/mL (≈ 538 µM) | 16 µg/mL (≈ 33.6 µM) | 128 µg/mL (≈ 269 µM) | 256 µg/mL (≈ 538 µM) | 64 µg/mL (≈ 135 µM) | 128 µg/mL (≈ 269 µM) | 256 µg/mL (≈ 538 µM) | 128 µg/mL (≈ 269 µM) | 256 µg/mL (≈ 538 µM) | 256 µg/mL (≈ 538 µM) | 256 µg/mL (≈ 538 µM) | 256 µg/mL (≈ 538 µM) | 256 µg/mL (≈ 538 µM) | 32 µg/mL (≈ 67.3 µM) | 256 µg/mL (≈ 538 µM) | – |
